Here are results for four molecules from patent EP4653445A1, “CDK INHIBITOR AND CRYSTAL FORM OF PHARMACEUTICALLY ACCEPTABLE SALT THEREOF, AND USE THEREOF” (CSPC Zhongqi Pharmaceutical Technology (Shijiazhuang) Co., …, priority 2023, dated 2024).

Data set [1] can be described thus: Solubility comparison in water, SGF, FaSSIF and FeSSIF (HPLC of filtrates, XRPD of filter cakes). The following applies: time not stated.
The next data set deals with MCF-7. In words: In vitro tumor cell proliferation inhibition test (CTG). In kind it is cell-based. Particulars: 4-7 days; for Maximum Inhibition Rate: HR+/HER2- Breast cancer; for IC50: Homo sapiens, MCF7, HR+/HER2- Breast cancer. As to the method:
(§1) The cells were subcultured regularly, and those in the logarithmic growth phase were taken for plating. The cells were stained with trypan blue and the viable cells were counted. The cell concentration was adjusted to an appropriate level. The cell suspension was added to each well of the culture plate, and the culture medium without cells was added to the blank control wells. […] The compound working solution was added to the cell culture plate, and DMSO at the same final concentration was added to the solvent control wells. Then the plate was returned to the incubator for 4-7 days of culture. The cell viability was detected according to the instructions of the Promega CellTiter-Glo (CTG) Luminescent Cell Viability Assay Kit (Promega-G7573). […] The IC50 was calculated using the following equation: [formula] • X: log(concentration) • Y: response value, negatively correlated with X • HillSlope: slope factor • Note: […]

The subject of another data set is MDA-MB-231. The description is as above. It is filed as cell-based. Particulars: 4-7 days; for IC50: Homo sapiens, MDA-MB-231, Triple-negative breast cancer; for Maximum Inhibition Rate: Triple-negative breast cancer. Here is the method: as §1
The subject of a further data set is xMCF-7/Palbo-R. The description is as above. In kind it is cell-based. The following applies: Breast cancer (acquired resistance to Palbociclib), 4-7 days. Here is the method: as §1
The next data set relates to MDA-MB-453. The data set is described as above. It is filed as cell-based. The following applies: 4-7 days; for Maximum Inhibition Rate: HR-/HER2+ Breast cancer; for IC50: Homo sapiens, MDA-MB-453, HR-/HER2+ Breast cancer. As to the method:
as §1

For the next data set, the system named is HCC1187. The description is as above. In kind it is cell-based. The following applies: 4-7 days; for IC50: Homo sapiens, HCC1187, Triple-negative breast cancer; for Maximum Inhibition Rate: Triple-negative breast cancer. Here is the method: as §1
A further data set has as its system T47D. The data set is described as above. It is filed as cell-based. Particulars: HR+/HER2- Breast cancer, 4-7 days; for IC50: Homo sapiens, T47D. As to the method: as §1
The test system of a further data set is MDA-MB-468 (Rb-). The description is as above. It is filed as cell-based. Particulars: 4-7 days; for Maximum Inhibition Rate: Breast cancer (primary resistance to Palbociclib); for IC50: Homo sapiens, MDA-MB-468, Breast cancer (primary resistance to Palbociclib). Here is the method: as §1
For another data set, the system named is Huh-7. The data set is described as above. It is filed as cell-based, Human. The following applies: 4-7 days. Here is the method:
(§2) The tumor cell strains were cultured in an incubator at 37 °C with 5% CO2. The cells were subcultured regularly, and those in the logarithmic growth phase were taken for plating. The cells were stained with trypan blue and the viable cells were counted. The cell concentration was adjusted to an appropriate level. The cell suspension was added to each well of the culture plate, and the culture medium without cells was added to the blank control wells. The culture plate was incubated overnight in an incubator at 37 °C, 5% CO2, and 100% RH. […] The compound working solution was added to the cell culture plate, and DMSO at the same final concentration was added to the solvent control wells. Then the plate was returned to the incubator for 4-7 days of culture. The cell viability was detected according to the instructions of the Promega CellTiter-Glo (CTG) Luminescent Cell Viability Assay Kit (Promega-G7573).
(§3) The inhibition rates of the compound at different concentrations were calculated in Excel, then the inhibition curve was plotted using GraphPad Prism software and relevant parameters, including the minimum inhibition rate, maximum inhibition rate, and IC50 were calculated.

Another data set concerns Hep3B (Rb-). Described as above. In kind it is cell-based, Human. Particulars: Liver cancer, 4-7 days. Here is the method:
as §2, §3

In the next data set the test system is SK-MEL-5. Described as above. It is filed as cell-based, Human. Particulars: 4-7 days. Here is the method: as §2, §3
The next data set relates to A2780. Described as above. It is filed as cell-based, Human. Particulars: 4-7 days. Here is the method: as §2, §3
A further data set deals with JHH-7. The description is as above. In kind it is cell-based, Human. The following applies: 4-7 days. As to the method: as §2, §3
The subject of the next data set is NCI-H211. The data set is described as above. In kind it is cell-based, Human. The following applies: 4-7 days. As to the method: as §2, §3
In another data set the test system is MOLM-13. The data set is described as above. It is filed as cell-based, Human. Particulars: 4-7 days. Here is the method: as §2, §3
The test system of a further data set is COLO 205. The data set is described as above. Particulars: 4-7 days. In kind it is cell-based, Human. Here is the method:
as §2, §3

The subject of a further data set is MV-4-11. Described as above. Particulars: 4-7 days. In kind it is cell-based, Human. Here is the method:
as §2, §3

The subject of a further data set is HCT 116. The data set is described as above. The following applies: 4-7 days. It is filed as cell-based, Human. As to the method:
as §2, §3

Another data set concerns HT-29. Described as above. In kind it is cell-based, Human. Particulars: 4-7 days. As to the method: as §2, §3
Data set [2] can be described thus: Stability test, samples placed open for 7 days (HPLC and XRPD). In kind it is physicochemical. The following applies: for XRPD-7days / Purity (Peak area%) 7 days: open. An excerpt:
Subsequently, the samples after 7 days were respectively detected by HPLC and XRPD to determine their chemical and physical stabilities.

Data set [3] in a line: Dynamic vapor sorption (DVS) test. In kind it is physicochemical. Here is the method: • Instrument: TA Instruments Q5000 SA • Detection method: 20 to 50 mg of the sample was placed in a tared sample basket and automatically weighed, and DVS testing was performed according to the parameters in Table 7: Step Time: 60 min; Equilibration Time per RH%: 1 hour; Total Gas Flow Rate: 200 sccm; Gradient mode: 0%-90%-0% humidity variation, with a humidity variation amount of 10% for each gradient level between 0% and 90%, and gradient endpoint was determined by dm/dt < 0.01% maintained for 10 minutes.

Data set [4] is described as follows: Stability test, samples placed open for 7 days (HPLC and XRPD). The following applies: HPLC. It is filed as physicochemical.

Where “and” joins values, the source holds several entries; their conditions need not be identical. Equal values may be shown once. Where a name gives a salt, the structure may show the parent alone.

Regarding `CC(=O)c1c(C)c2cnc(Nc3ccc4c(c3)OC[C@@H]3CN(C5CCN(C)CC5)CCN43)nc2n(C2CCCC2)c1=O` [Compound A], in data set [1] (SGF, listed as free base), the “solubility in SGF” value is “greater than 5 mg/mL”. The solubility in water result in data set [1] (water) is “approximately 0.003 mg/mL”. The “Maximum Inhibition Rate” value in the data set on MCF-7 was 99.937%; in the data set with MDA-MB-231, 99.567%; in the data set on xMCF-7/Palbo-R, 99.677%; in the data set on MDA-MB-453, 102.600%; with MDA-MB-453 (listed as compound A), about 100%; in the data set with HCC1187, 99.777%. Besides, the “Maximum Inhibition Rate” value in the data set with T47D is on record as 99.910%; with MDA-MB-468 (Rb-), 99.693%; with MDA-MB-468 (Rb-) (listed as compound A) it was “exceeding 99%”; in the data set on Huh-7 (Liver cancer) it was 99.447%; in the data set with Hep3B (Rb-), 99.055%; with Hep3B (Rb-) (listed as compound A) it was “exceeding 99%”. In addition, the “Maximum Inhibition Rate” value in the data set on SK-MEL-5 (Melanoma) is listed as 99.213%; in the data set with A2780 (Ovarian cancer), 98.887%; in the data set with JHH-7 (Liver cancer) it was 99.394%; in the data set on NCI-H211 (Small cell lung cancer) it was 99.883%; in the data set with MOLM-13 (Hematological tumor) it was 99.993%; in the data set on COLO 205 (Colorectal cancer) it was 99.093%. The “Maximum Inhibition Rate” value is listed as 99.897% in the data set on MV-4-11 (Hematological tumor), 99.244% in the data set on HCT 116 (Colorectal cancer) and 95.622% in the data set on HT-29 (Colorectal cancer). Also, the IC50 was 76 nM in the data set with MCF-7; 3450 nM in the data set on MDA-MB-231; 3090 nM in the data set with xMCF-7/Palbo-R; 384 nM in the data set with MDA-MB-453; 1110 nM in the data set on HCC1187; 1500 nM with T47D. In addition, the IC50 stood at 440 nM with MDA-MB-468 (Rb-); 107 nM with Huh-7 (Homo sapiens, Huh-7, Liver cancer); 3330 nM in the data set on Hep3B (Rb-) (Homo sapiens, Hep3B); 9500 nM in the data set with SK-MEL-5 (Homo sapiens, SK-MEL-5, Melanoma); 438 nM in the data set with A2780 (Homo sapiens, A2780, Ovarian cancer); 107 nM with JHH-7 (Homo sapiens, JHH7, Liver cancer). In addition, the IC50 in the data set on NCI-H211 (Homo sapiens, NCI-H211, Small cell lung cancer) amounted to 201 nM; in the data set on MOLM-13 (Homo sapiens, MOLM-13, Hematological tumor), 370 nM; in the data set with COLO 205 (Homo sapiens, COLO 205, Colorectal cancer) it was 734 nM; in the data set on MV-4-11 (Homo sapiens, MV4-11, Hematological tumor), 102 nM; in the data set with HCT 116 (Homo sapiens, HCT-116, Colorectal cancer), 134 nM; in the data set on HT-29 (Homo sapiens, HT-29, Colorectal cancer), 113 nM.
Regarding `CC(=O)c1c(C)c2cnc(Nc3ccc(N4CCNCC4)cn3)nc2n(C2CCCC2)c1=O` [Palbociclib, reference compound], the “Maximum Inhibition Rate” value is 96.983% in the data set on MCF-7; 41.943% in the data set with MDA-MB-231; 98.367% with xMCF-7/Palbo-R; 11.183% with HCC1187; 48.850% in the data set on T47D; 34% and 34.044% in the data set on MDA-MB-468 (Rb-). In addition, the IC50 in the data set on MCF-7 was 52 nM; in the data set with MDA-MB-231, over 5000 nM; in the data set with xMCF-7/Palbo-R, 7700 nM; in the data set on MDA-MB-453 it was 188 nM; in the data set on HCC1187, over 5000 nM; in the data set with T47D, over 5000 nM. The same molecule displayed a concentration for half-maximal inhibition (IC50) in the data set on MDA-MB-468 (Rb-) of over 5000 nM.
For `CC(=O)c1c(C)c2cnc(Nc3ccc4c(c3)OC[C@@H]3CN(C5CCN(C)CC5)CCN43)nc2n(C2CCCC2)c1=O` [crystalline form B of the hydrochloride salt of compound A], the XRPD-7days entry in data set [2] (40°C /75%RH), in [2] (60°C) and in [2] (92.5%RH) was “Unchanged” each time. Besides, the “Purity (Peak area%) 7 days” value in data set [2] (40°C /75%RH, HPLC) was 99.33 Peak area%; in [2] (60°C, HPLC) it was 99.38 Peak area%; in data set [2] (92.5%RH, HPLC), 99.36 Peak area%. Besides, in data set [2] (60 °C, 92.5% RH and 40 °C/75% RH for 7 days, HPLC), the chemical stability result is “chemically stable”. Moreover, in [2] (under the three conditions 60 °C, 92.5% RH and 40 °C/75% RH), the “crystalline form (XRPD) after 7 days” value is “remained unchanged”. The “XRPD pattern / crystalline form after the DVS test” value in [3] (before vs after DVS test) is recorded as “did not change”. For the same molecule, in data set [4], the “Purity (Peak area%) 0 day” value is listed as 99.31 Peak area%.
Take `CC(=O)c1c(C)c2cnc(Nc3ccc4c(c3)OC[C@@H]3CN(C5CCN(C)CC5)CCN43)nc2n(C2CCCC2)c1=O` [crystalline form C of the benzenesulfonate of compound A]: the XRPD-7days result in [2] (40°C /75%RH) is given as “remained unchanged”; in [2] (60°C) it was “remained unchanged”; in data set [2] (92.5%RH) it was “changed into a new crystalline form”. Further, the “Purity (Peak area%) 7 days” value in data set [2] (40°C /75%RH, HPLC) came out at 98.79 Peak area%; in data set [2] (60°C, HPLC) it was 98.89 Peak area%; in data set [2] (92.5%RH, HPLC) it was 98.84 Peak area%. The molecule further registered a moisture absorption in data set [3] (DVS, at 80% RH) of 1.2%. In addition, the “Purity (Peak area%) 0 day” value in [4] is on record as 98.79 Peak area%.
